In patent US9980976B2, “Use of REDD1 inhibitors to dissociate therapeutic and adverse atrophogenic effects of glucocorticoid receptor agonists” (Northwestern University, priority 2015, dated 2018):

Tests used:
[1] = test system: GR; assay: GR nuclear translocation (immunofluorescence in HaCaT, Western blot of nuclear extracts in CEM); assay type: cell-based, human; conditions: HaCaT cells, 1 uM FA
Protocol: FIG. 15. Rapamycin inhibits GR nuclear translocation and phosphorylation. A. GR nuclear translocation in HaCaT cells was determined by immunofluorescence as described in Materials and Methods. Cells on coverslips were pretreated with solvent (Control) or Rapamycin (1 uM×6 h) and treated with 1 uM FA for indicated time. B. GR nuclear translocation in CEM cells was determined by Western blot analysis of nuclear protein extracts. Membranes were probed with anti-HDAC-1 antibodies to verify equal protein loading and transfer. C, D. GR phosphorylation in HaCaT (C) and CEM (D) cells was determined by Western blot analysis of whole cell lysates. Membranes were probed with anti-GAPDH antibodies to verify equal protein loading and transfer.
GR nuclear translocation was determined by immunofluorescence in HaCaT cells. Cells infected with pGIPZ and shREDD1 lentiviruses were selected with puromycin, seeded on coverslips. After the treatments, cells were fixed with 2% formaldehyde and permeabilized with acetone:methanol (1:1 v/v). After blocking, cells were incubated with primary rabbit anti-GR antibody (H-300, Santa Cruz Biotechnology, Santa Cruz, Calif., USA) followed by secondary anti-rabbit FITC-conjugated antibody (Jackson Immuno Research). Cell nuclei were counterstained with DAPI (Invitrogen, Life Technologies, Grand Island, N.Y., USA). […]

[2] = test system: NF-kB dependent genes cyclins D1 and D2, MMP1 and CD74; assay: Q-PCR analysis of NF-kB dependent genes in HaCaT and CEM cells; assay type: cell-based, human; conditions: single treatments, 1 uM
Protocol: FIG. 14. Rapamycin enhances GR transrepression. A, B. Q-PCR analysis of MMP13 and CD74 expression in HaCaT cells (A) and cyclin D1 (CCND1) and cyclin D2 (CCND2) expression in CEM cells (B). Cells were pretreated with solvent or Rapa (1 uM)×6 hrs and treated with solvent (Control) or FA (1 uM) for 24 h. A, B. Q-PCR results were normalized to the expression of the housekeeping Rp127 gene, and presented as fold of change compared to control cells. The means+/−SD calculated for three individual RNA samples/condition. a—Statistically significant difference (P<0.05) compared to control; b—Statistically significant differences (P<0.05) compared to FA treatment. C. […] The means+SD were calculated for three individual wells/group in one representative experiment (out of three experiments). a—Statistically significant differences (P<0.05) in comparison to vehicle treatment; b—Statistically significant differences (P<0.05) in comparison to FA treatment.
Total RNA from murine epidermis, whole human skin, and cell cultures was isolated with RiboPure kit (Ambion, Life Technologies, Grand Island, N.Y., USA). […] The gene expression was assessed using semi-quantitative two-step RT-PCR and quantitative Q-PCR. […] For semi-quantitative PCRs, Taq DNA polymerase (Promega) was used, and PCR products were separated on 1.5% agarose gel and visualized using automated imaging system (Bio-Rad, Hercules, Calif., USA). […]

SMILES: CC1(C)O[C@@H]2C[C@H]3[C@@H]4C[C@H](F)C5=CC(=O)C=C[C@]5(C)[C@@]4(F)[C@@H](O)C[C@]3(C)[C@]2(C(=O)CO)O1 [FA, fluocinolone acetonide]
- time GR remained in the nucleus [1]: 2 to 24 h
- time to GR nuclear import [1]: 10 min
- basal expression of NF-kB dependent genes cyclins D1 and D2, MMP1 and CD74 [2]: inhibited
